Test results: patent publication EP0973746B1, “SUBSTITUTED 3-CYANO QUINOLINES” (Wyeth Holdings Corporation, priority 1997, dated 1998)
pIC50: −log10 of the molar value. Converted amounts (≈) assume the structure as drawn.

How the values were obtained:
LX1 = assay: Inhibition of cancer cell growth as measured by cell number, LX1; type: cell-based; conditions: Homo sapiens, LX-1; cell number, Sulforhodamine B, 48 hours exposure; Table 6; read-out: IC50 LX1
SKBR3 = assay: Inhibition of cell growth by incorporation of [3H]-thymidine, SKBR3; type: cell-based, human; conditions: Homo sapiens, SK-BR-3, [3H]-thymidine incorporation
Protocol: (§1) Representative compounds of this invention were evaluated for their ability to inhibit the growth of the cell lines described below in vitro. The inhibition is quantitated by measuring the decrease in the incorporation of radio-labeled thymidine when the cells are grown in the presence of the inhibitor. […] Cells were routinely grown in a humidified incubator in 5% CO2 in air.
(§2) Cells were seeded at 10,000 cells/well in 96 well plates in complete media and allowed to grow to log phase. At this stage the complete media was replaced with media containing 0.5% FBS (for cells growing in 10% FBS) or media lacking epidermal growth factor (EGF) (for cells growing in serum free media). […] Media with test compound was then removed and complete media was added back. The cells were allowed to grow for 18 hours. This is followed by incubation in [^3H]thymidine (1mCi/ml in serum/EGF media) for 4 hours. Cells were lysed in 0.5 M NaOH for at least 30 min at 37°C and radioactivity analyzed.
(§3) The % inhibition of the compound evaluated was determined for at least three different concentrations and the IC50 value evaluated from the dose response curve. […] CPM(control) is in units of counts per minute and is a number expressing the amount of [^3H]thymidine incorporated onto the DNA when cells are grown in the absence of test compound as measured by liquid scintillation counting.

A27805 = assay: Inhibition of cancer cell growth as measured by cell number, A27805; type: cell-based; conditions: Homo sapiens; cell number, Sulforhodamine B, 48 hours exposure; Table 4; read-out: IC50 A27805
CCRF-CFM = assay: Inhibition of cancer cell growth as measured by cell number, CCRF-CFM; type: cell-based; conditions: Homo sapiens; cell number, Sulforhodamine B, 48 hours exposure; Table 7; read-out: IC50 CCRF-CFM
SW620 = assay: Inhibition of cancer cell growth as measured by cell number, SW620; type: cell-based, human; conditions: Homo sapiens, SW-620, 48 h, cell number, Sulforhodamine B, 48 hours exposure; Table 4; read-out: IC50 SW620;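 further: SW620 was included as a cell line with little or no EGFR or HER2/neu expression, in contrast to receptor-overexpressing lines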
Description: (§4) The cell lines were chosen since they overexpressed epidermal growth factor receptor (EGFR) (i.e. A431) or HER2/neu (SKBR3), or had little to no expression of the these receptors (SW620, LOX, MCF7).

MIP = assay: Inhibition of cancer cell growth as measured by cell number, MIP; type: cell-based; conditions: Homo sapiens; cell number, Sulforhodamine B, 48 hours exposure; Table 4; read-out: IC50 MIP
SW948 = assay: Inhibition of cancer cell growth as measured by cell number, SW948; type: cell-based; conditions: Homo sapiens, SW948; cell number, Sulforhodamine B, 48 hours exposure; Table 5; read-out: IC50 SW948
CCL228 = assay: Inhibition of cancer cell growth as measured by cell number, CCL228; type: cell-based; conditions: Homo sapiens; cell number, Sulforhodamine B, 48 hours exposure; Table 5; read-out: IC50 CCL228
NEU-3T3 = assay: Inhibition of cell growth by incorporation of [3H]-thymidine, Neu-3T3; type: cell-based, mouse; conditions: Mus musculus, [3H]-thymidine incorporation
Protocol: as §1, §2, §3

HL60 = assay: Inhibition of cancer cell growth as measured by cell number, HL60; type: cell-based; conditions: Homo sapiens, HL-60; cell number, Sulforhodamine B, 48 hours exposure; Table 7; read-out: IC50 HL60
COLO205 = assay: Inhibition of cancer cell growth as measured by cell number, COLO205; type: cell-based; conditions: Homo sapiens, COLO 205; cell number, Sulforhodamine B, 48 hours exposure; Table 4; read-out: IC50 COLO205
A549 = assay: Inhibition of cancer cell growth as measured by cell number, A549; type: cell-based; conditions: Homo sapiens, A549; cell number, Sulforhodamine B, 48 hours exposure; Table 6; read-out: IC50 A549
CACO2 = assay: Inhibition of cancer cell growth as measured by cell number, CACO2; type: cell-based; conditions: Homo sapiens, Caco-2; cell number, Sulforhodamine B, 48 hours exposure; Table 5; read-out: IC50 CACO2
A2780DDP = assay: Inhibition of cancer cell growth as measured by cell number, A2780DDP; type: cell-based; conditions: Homo sapiens; cell number, Sulforhodamine B, 48 hours exposure; Table 4; read-out: IC50 A2780DDP
[1] = target: epidermal growth factor receptor kinase (Homo sapiens, UniProt P00533); assay: biochemical
epidermal growth factor receptor kinase, sequence (P00533 25-1210): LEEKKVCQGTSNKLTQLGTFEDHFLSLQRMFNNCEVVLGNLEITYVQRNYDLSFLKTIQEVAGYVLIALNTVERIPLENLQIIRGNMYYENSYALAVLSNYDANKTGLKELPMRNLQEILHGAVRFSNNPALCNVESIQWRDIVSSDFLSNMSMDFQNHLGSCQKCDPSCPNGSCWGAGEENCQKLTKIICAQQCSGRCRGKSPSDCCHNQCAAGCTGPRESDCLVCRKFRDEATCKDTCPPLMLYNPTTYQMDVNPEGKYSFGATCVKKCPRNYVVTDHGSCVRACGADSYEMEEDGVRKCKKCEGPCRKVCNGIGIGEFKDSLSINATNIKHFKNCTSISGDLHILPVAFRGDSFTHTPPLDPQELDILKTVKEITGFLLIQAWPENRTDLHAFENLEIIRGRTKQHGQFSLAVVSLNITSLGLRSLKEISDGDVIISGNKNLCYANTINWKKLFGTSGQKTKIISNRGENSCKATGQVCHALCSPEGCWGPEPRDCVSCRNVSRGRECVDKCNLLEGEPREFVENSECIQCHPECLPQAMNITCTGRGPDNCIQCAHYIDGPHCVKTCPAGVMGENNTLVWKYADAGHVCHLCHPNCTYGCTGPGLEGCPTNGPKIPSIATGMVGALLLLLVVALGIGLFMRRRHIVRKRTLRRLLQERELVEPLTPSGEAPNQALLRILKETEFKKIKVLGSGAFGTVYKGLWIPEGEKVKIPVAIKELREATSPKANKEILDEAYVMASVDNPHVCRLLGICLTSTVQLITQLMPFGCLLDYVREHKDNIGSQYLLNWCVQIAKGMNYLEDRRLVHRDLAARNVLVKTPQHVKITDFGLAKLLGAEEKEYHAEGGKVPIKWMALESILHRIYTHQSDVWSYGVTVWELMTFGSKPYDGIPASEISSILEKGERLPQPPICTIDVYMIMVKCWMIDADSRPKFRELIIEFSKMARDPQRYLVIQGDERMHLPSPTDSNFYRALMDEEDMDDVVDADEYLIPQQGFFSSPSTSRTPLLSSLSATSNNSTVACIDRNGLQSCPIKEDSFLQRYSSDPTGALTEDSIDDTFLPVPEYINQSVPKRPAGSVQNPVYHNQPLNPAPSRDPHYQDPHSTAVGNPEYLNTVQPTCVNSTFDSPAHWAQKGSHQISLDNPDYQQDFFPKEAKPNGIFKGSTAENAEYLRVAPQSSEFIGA

LS174T = assay: Inhibition of cancer cell growth as measured by cell number, LS174T; type: cell-based; conditions: Homo sapiens, cell number, Sulforhodamine B, 48 hours exposure, Table 5, read-out: IC50 LS174T
LNCAP = assay: Inhibition of cancer cell growth as measured by cell number, LNCAP; type: cell-based; conditions: Homo sapiens, cell number, Sulforhodamine B, 48 hours exposure, Table 7, read-out: IC50 LNCAP
A431 [2] = assay: Inhibition of cancer cell growth as measured by cell number, A431; type: cell-based, human; conditions: Homo sapiens, A-431, 48 h, cell number, Sulforhodamine B, 48 hours exposure; Table 6; read-out: IC50 A431;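 further: human A431 line, picked because it overexpresses epidermal growth factor receptor (EGFR)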
Description: as §4

A431 [3] = assay: Inhibition of cell growth by incorporation of [3H]-thymidine, A431; type: cell-based, human; conditions: Homo sapiens, A-431; [3H]-thymidine incorporation; A431; read-out: IC50 A431
Protocol: as §1, §2, §3

LOX = assay: Inhibition of cancer cell growth as measured by cell number, LOX; type: cell-based, human; conditions: Homo sapiens, LOX, 48 h, cell number, Sulforhodamine B, 48 hours exposure; Table 6; read-out: IC50 LOX;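 further: LOX cells served as a line with low or absent EGFR and HER2/neu expression, in contrast to receptor-overexpressing lines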
Description: as §4

NEC = assay: Inhibition of cancer cell growth as measured by cell number, NEC; type: cell-based; conditions: Homo sapiens; cell number, Sulforhodamine B, 48 hours exposure; Table 6; read-out: IC50 NEC
T47D = assay: Inhibition of cancer cell growth as measured by cell number, T47D; type: cell-based; conditions: Homo sapiens, cell number, Sulforhodamine B, 48 hours exposure, Table 6, read-out: IC50 T47D
NHEK = assay: Inhibition of cell growth by incorporation of [3H]-thymidine, NHEK; type: cell-based, human; conditions: Homo sapiens, [3H]-thymidine incorporation, read-out: IC50 NHEK
Protocol: as §1, §2, §3

B7474 = assay: Inhibition of cancer cell growth as measured by cell number, B7474; type: cell-based; conditions: Homo sapiens; cell number, Sulforhodamine B, 48 hours exposure; Table 6; read-out: IC50 B7474
HCT15 = assay: Inhibition of cancer cell growth as measured by cell number, HCT15; type: cell-based; conditions: Homo sapiens, HCT-15; cell number, Sulforhodamine B, 48 hours exposure; Table 5; read-out: IC50 HCT15
DU145 = assay: Inhibition of cancer cell growth as measured by cell number, DU145; type: cell-based; conditions: Homo sapiens, DU-145; cell number, Sulforhodamine B, 48 hours exposure; Table 7; read-out: IC50 DU145
PC3 = assay: Inhibition of cancer cell growth as measured by cell number, PC3; type: cell-based; conditions: Homo sapiens, PC-3; cell number, Sulforhodamine B, 48 hours exposure; Table 7; read-out: IC50 PC3
HTB161 = assay: Inhibition of cancer cell growth as measured by cell number, HTB161; type: cell-based; conditions: Homo sapiens; cell number, Sulforhodamine B, 48 hours exposure; Table 4; read-out: IC50 HTB161
CX1 = assay: Inhibition of cancer cell growth as measured by cell number, CX1; type: cell-based; conditions: Homo sapiens, CX-1; cell number, Sulforhodamine B, 48 hours exposure; Table 4; read-out: IC50 CX1

Work on CC#CC(=O)Nc1ccc2ncc(C#N)c(Nc3ccc(Br)c(Br)c3)c2c1 [Example 22, N-[4-[(3,4-dibromophenyl)amino]-3-cyano-6-quinolinyl]-2-butynamide] yielded an IC50 (LX1) of 0.81 µg/mL (≈ 1.67 µM), a pIC50 (SKBR3) of less than 4.30 and an IC50 (A27805) of 0.0567 µg/mL (≈ 0.117 µM). For the same compound, the IC50 (CCRF-CFM) was 0.403 µg/mL (≈ 0.833 µM), the IC50 (SW620) was 0.526 µg/mL (≈ 1.09 µM) and the IC50 (MIP) was 0.378 µg/mL (≈ 0.782 µM). For the same compound, the IC50 (SW948) was 0.593 µg/mL (≈ 1.23 µM), the IC50 (CCL228) was 0.255 µg/mL (≈ 0.527 µM) and the pIC50 (NEU-3T3) was less than 4.30. It also gave an IC50 (HL60) of 0.608 µg/mL (≈ 1.26 µM), an IC50 (COLO205) of 4.3 µg/mL (≈ 8.89 µM) and an IC50 (A549) of 0.375 µg/mL (≈ 0.775 µM). For the same compound, the IC50 (CACO2) was 0.475 µg/mL (≈ 0.982 µM), the IC50 (A2780DDP) was 0.211 µg/mL (≈ 0.436 µM) and the pIC50 [1] was 5.52. It also gave an IC50 (LS174T) of 0.847 µg/mL (≈ 1.75 µM), an IC50 (LNCAP) of 0.722 µg/mL (≈ 1.49 µM) and an IC50 (A431 [2]) of 0.0443 µg/mL (≈ 0.0915 µM). The pIC50 (A431 [3]) was 6.82, the IC50 (LOX) was 0.0225 µg/mL (≈ 0.0465 µM) and the IC50 (NEC) was 0.492 µg/mL (≈ 1.02 µM). The IC50 (T47D) was 0.704 µg/mL (≈ 1.45 µM), the pIC50 (NHEK) was 7.46 and the IC50 (B7474) was 0.314 µg/mL (≈ 0.648 µM). The IC50 (HCT15) was 0.372 µg/mL (≈ 0.769 µM), the IC50 (DU145) was 0.265 µg/mL (≈ 0.548 µM) and the IC50 (PC3) was 0.695 µg/mL (≈ 1.44 µM). For the same compound, the IC50 (HTB161) was 0.248 µg/mL (≈ 0.512 µM) and the IC50 (CX1) was 0.775 µg/mL (≈ 1.6 µM).
